“Also recorded” adds a separate entry of the source.
Tests used:
rat arthritis model [1] = test: Knee joint circumference and joint temperature in kaolin/carrageenan knee joint inflammation model; type: in vivo; conditions: 4 hours after kaolin/carrageenan; spinal pre-treatment
Method: (§1) An acute inflammatory response restricted to the knee joint can be induced by the injection of 3% kaolin and 3% carrageenan (in sterile saline; 0.1 ml; pH 7.4) into the joint cavity while the animal is briefly anesthetized with sodium methohexital (Brevital, 60 mg/kg, i.p.). Kaolin and carrageenan were obtained from Fisher Scientific, St. Louis, Mo. The knee joint is flexed manually until the rat awakes (approximately 5–10 minutes). In this arthritis model in the awake rat, localized joint swelling, as well as limping and guarding of the limb, are well developed at 4 hours (Sluka et al., Pain, 59, 95–100 (1994)) when behavioral testing begins.
Knee joint circumference is measured in centimeters (cm) with a flexible tape measure around the center of the knee joint while the joint is held in extension as done with patients in the clinical setting as an indication of increases in joint volume. The knee joints of anesthetized rats are measured before (baseline) and four hours following injection of the knee joint with kaolin and carrageenan.
Temperature readings were documented numerically with a temperature probe after the rat is reanesthetized with sodium pentobarbital (50 mg/kg, i.p.) just prior to perfusion with aldehydes for histological preservation. Comparative temperature differences were made between the baseline temperature and the temperature four hours after induction of inflammation.

NMDA currents = conditions: patch clamp studies; cited from earlier work
rat arthritis model [2] = test: Paw withdrawal latency (PWL) to radiant heat in rat kaolin/carrageenan knee joint inflammation model; type: in vivo
Method: All studies followed the guidelines of the Institute Animal Care and Use Committee, in accordance with the guidelines of the National Institutes of Health. All animals were hosted in a room with a constant ambient temperature of 22° C. and 12 hour light/dark cycle with free access to food and water. Eighty-five Sprague-Dawley rats (250–300 grams) total were used in experiments conducted for biochemical, behavioral, and immunocytochemistry studies. […] On Day 2 baseline behavioral testing was followed by infusion of agents for 1.5 hours (pretreatment) prior to induction of knee joint inflammation under brief anesthesia. Behavioral testing was repeated 4 hours after induction of joint inflammation. Anesthetized animals were either transcardially perfused with aldehydes for immunohistochemical studies or fresh, frozen tissues collected for biochemical studies.
A microdialysis fiber was implanted into the spinal dorsal horn of anesthetized rats (sodium pentobarbital, 50 mg/kg) one day prior to the induction of arthritis according to the procedure of Skilling et al. (J. Neurochem., 51:127–132 (1988)), as described in Sluka et al. (Neurosci. Lett., 145:141–144 (1992)). Briefly, a small midline incision was made in the skin over the T12 vertebral level. The vertebrae were cleared of muscle and two 1 millimeter (mm) holes were drilled in the lateral aspect of both sides of the T12 vertebrae to expose the L4 spinal segment. A microdialysis fiber ([…], 45,000 MW cut-off, Hospal, AN69, Hospal Industrie, Meyzieu, France), was passed transversely across the deep dorsal horn and stabilized with dental cement. The microdialysis fiber was then passed through the holes in the vertebrae and transversely through the dorsal horn of the spinal cord. A 2 mm section of the microdialysis fiber lies in the dorsal horn at the level of L3–4 segment. The tubing was coated with epoxy except for a permeable portion passing through the spinal grey matter. The microdialysis fiber was connected to PE20 tubing (Becton Dickinson and Company, San Mateo, Calif.) which was tunneled under the skin to the nape of the neck. Alternatively as a systemic control for drug administration, the microdialysis fiber was implanted only in the subcutaneous tissue over the back muscle and tunneled to the neck. Artificial cerebrospinal fluid (aCSF) was made as described by Sorkin et al. (J. Neurosci. Methods, 23, 131–138 (1988)) and was infused (5 microliters/minute) for 1.5 hours and then the tube was heat-sealed for use on the following day.
Dose response curves were generated for Genistein with animals receiving Genistein spinally at concentration of 0.2 mM (n=3), 0.5 mM (n=3), 1 mM (n=9), and 2 mM (n=3). Animals received Lavendustin A or B spinally at concentrations of 0.1 mM (n=3), 0.5 mM (n=3), and 1 mM (n=5) as a positive and negative control for Genistein. […] Daidzein was tested at a dose of 1 mM (n=3). […] Eight additional animals received the vehicle, 50% DMSO in aCSF, as a control.
as §1
Fifty-five rats were used for behavioral studies. Four hours after induction of the arthritis, the joint is swollen and increased withdrawal responses to radiant heat and spontaneous guarding of the limb were noted. The increased responsiveness to noxious stimuli indicates the presence of secondary hyperalgesia. […]

TNFα = TNFα release by ELISA from SW982 synovial cells treated with NMDA and ACPD; type: cell-based, human; conditions: 24 hours, NMDA (5 mM) and ACPD (5 mM), K252a (100 nM)
Method: The cultured cell lines used in these studies were the human neuroblastoma clonal line, SHSY5Y, and the human synovial sarcoma clonal line, SW982, both available through the American Tissue Type Culture Collection (item number CRL 2266 and HTB-93, respectively). Cells were grown in Dulbecco's Modification of Eagles Medium (DMEM) without L-glutamine, with 4.5 grams/Liter glucose, and with 10% bovine fetal serum in a tissue culture incubator at 37° C. in a gaseous mixture of O2/CO2. Cells were routinely split as necessary to maintain proper cell density. Cells were removed from plates by adding TRYPSIN/EDTA in Hank's Balanced Salt solution. After cell counts, approximately 10,000 cells were plated per well in a culture dish. For experiments, the cells were plated into 35 mm Petri dishes or 6- or 24-well plates as needed.
For detection of released Tumor Necrosis Factor alpha (TNFα) and some western blot experiments, cells were exposed to the two glutamate agonists NMDA (5 mM) and ACPD (5 mM), in the presence or absence of the tyrosine kinase inhibitors Genistein […] or K252a (100 nM). […]
The release of the inflammatory mediator and initiator of inflammatory cascades, TNFα was measured by ELISA using a commercially available kit (R&D Quantikine, Catalog Number DTA50) specific for human TNFα. […]

## O=c1c(-c2ccc(O)cc2)coc2cc(O)cc(O)c12 [Genistein, 5,7-Dihydroxy-3-(4-hydroxyphenyl)-4H-1-benzopyran-4-one; 4′,5,7-trihydroxy-isoflavone]
Rat arthritis model [1]
  joint circumference: expected increases
  joint temperature: expected increases
NMDA currents
  effect on NMDA currents: decreases NMDA currents
Rat arthritis model [2]; after 1.5 hours infusion, before kaolin/carrageenan
  effect on baseline PWL: did not affect baseline PWL
Rat arthritis model [2]; concentration inside the microdialysis fiber, spinal administration
  most effective dose in pre-treatment animals: 1 mM
Rat arthritis model [2]; spinal microdialysis pre-treatment 1.5 hours, PWL to radiant heat 4 hours after kaolin/carrageenan
  PWL decrease induced by knee joint inflammation: significantly (p<0.05 versus 4 hours vehicle group) attenuated the PWL decreases; also recorded: significantly attenuates the inflammation-induced decrease in PWL
Rat arthritis model [2]; spinal microdialysis pre-treatment, 4 hours after induction of arthritis
  development of secondary hyperalgesia: secondary hyperalgesia did not develop
TNFα
  NMDA/ACPD-promoted release of TNFα: completely abolished
